PMC9317670, “Temporal and Wash-Out Studies Identify Medicines for Malaria Venture Pathogen Box Compounds with Fast-Acting Activity against Both Trypanosoma cruzi and Trypanosoma brucei” (Microorganisms, 2022)
Like-named read-outs stand apart in the source and are kept apart here.

Experiments:
T. cruzi and T.b. brucei = test: Speed of action and cidality classification from temporal and wash off assays; assay type: cell-based, Trypanosoma cruzi, Trypanosoma brucei brucei; conditions: for Speed of Action (FA/SA): TC = T. cruzi, TBB = T.b. brucei; for Speed of Action (Table 5): prioritised compounds, Fast/Slow
[1] = tested on: T. cruzi Tulahuen strain parasites in 3T3 host cells; test: T. cruzi 48 h image-based assay; assay type: cell-based, Trypanosoma cruzi; conditions: for Emax / IC50 / Emax % (T. cruzi): 48 h; for Emax: read-out: Emax % (T. cruzi) (converted); for IC50: read-out: IC50 (T. cruzi); for SI (T. cruzi) 3T3: selectivity index in relation to 3T3 host cells, highest dose 3T3 73 µM; for SI (T. cruzi) HEK: selectivity index in relation to HEK293 cells; for SI (T. cruzi) (HEP): selectivity index in relation to HEPG2 cells
T. cruzi [2] = test: T. cruzi compound wash off assay (48 h with compound, wash off, 72 h without); assay type: cell-based, Trypanosoma cruzi; conditions: T. cruzi; for Fold Change of IC50, wash off vs 48 h: IC50 from 48 h incubation to IC50 following wash off and further 72 h; for IC50: read-out: IC50 Wash Off
T. cruzi [3] = test: T. cruzi temporal image-based assay, 24 h exposure; assay type: cell-based, Trypanosoma cruzi; conditions: for IC50: NA = not active at given concentration, read-out: IC50 24 h T. cruzi
HEPG2 cells = test: HEPG2 cytotoxicity assay; assay type: cell-based, human; conditions: HEPG2, 72 h, NA = not active, highest dose 79 µM unless given; for IC50: read-out: IC50 (HEP) (converted)
[4] = tested on: T.b. brucei bloodstream 427 strain parasites; test: T.b. brucei 72 h REDOX-based (resazurin) viability assay; assay type: cell-based, Trypanosoma brucei brucei; conditions: for Emax % (T.b. brucei) / IC50 / Emax: 72 h; for SI (T.b. brucei) HEK: selectivity index in relation to HEK293 cells; for SI (T.b. brucei) (HEP): selectivity index in relation to HEPG2 cells
HEK293 cells = test: HEK293 cytotoxicity assay; assay type: cell-based, human; conditions: HEK293, 72 h, NA = not active, highest dose 79 µM unless given
T.b. brucei [5] = test: T.b. brucei temporal viability (time-kill) assay, 48 h, PrestoBlue; assay type: cell-based, Trypanosoma brucei brucei; conditions: for Emax: read-out: Emax 48 h T.b. brucei (converted); for IC50: read-out: IC50 48 h T.b. brucei
T.b. brucei [6] = test: T.b. brucei temporal viability (time-kill) assay, 24 h, PrestoBlue; assay type: cell-based, Trypanosoma brucei brucei; conditions: for Emax: read-out: Emax 24 h T.b. brucei (converted); for IC50: read-out: IC50 24 h T.b. brucei
Protocol: Time-kill assays was undertaken as previously described, using the REDOX reagent PrestoBlue® [24]. […] Control compounds were added at the same concentrations at outlined for the resazurin-based assays.

T.b. gambiense STIB930 = T.b. gambiense STIB930 assay, 72 h; assay type: cell-based; conditions: Trypanosoma brucei, unit inferred, read-out: IC50 T. Bg STIB930 (T.b. gambiense)
T.b. rhodesiense STIB900 = T.b. rhodesiense STIB900 assay, 72 h; assay type: cell-based; conditions: Trypanosoma brucei; STIB900, 72 h; unit inferred; read-out: IC50 T. bR (T.b. rhodesiense)
[7] = Trypanosoma cruzi, 48 h incubation, wash off, further 72 h
[8] = 48 h incubation, wash off, further 72 h

Compound	Speed of Action (FA/SA) (T. cruzi and T.b. brucei)	Emax ([1]; Trypanosoma cruzi, TULAHUEN) [%]	IC50 ([1]; Trypanosoma cruzi, TULAHUEN) [nM]	SI (T. cruzi) 3T3 [1]	Fold Change of IC50, wash off vs 48 h (T. cruzi [2]) [fold]	IC50 (T. cruzi [2]; [7]) [nM]	IC50 (T. cruzi [3]; Trypanosoma cruzi) [nM]	Emax % (T.b. brucei) [4] [%]	IC50 [4] [nM]	SI (T.b. brucei) HEK [4]	SI (T.b. brucei) (HEP) [4]	Emax % (T. cruzi) [1] [%]	SI (T. cruzi) HEK [1]	SI (T. cruzi) (HEP) [1]	Emax ([4]; Trypanosoma brucei) [%]	IC50 ([4]; Trypanosoma brucei) [nM]	Emax (T.b. brucei [5]; Trypanosoma brucei) [%]	IC50 (T.b. brucei [5]; Trypanosoma brucei) [nM]	Emax (T.b. brucei [6]; Trypanosoma brucei) [%]	IC50 (T.b. brucei [6]; Trypanosoma brucei) [nM]	also measured
O=C(Cn1ccnc1[N+](=O)[O-])NCc1ccccc1 [Benznidazole, reference compound]	FA (Fast-acting (FA) = IC50 value can be determined following 24 h incubation, <10-fold difference in the IC50 value from 24 to 72 h)	100	3400 ± 710	>37	0.29	1200 ± 110	4700 ± 1400	–	–	–	–	–	–	–	–	–	–	–	–	–	IC50 (HEP) (HEPG2 cells): NT (NA at 127 µM)
CN(C)c1cc(NC(=O)Nc2ccccc2)c2ccccc2n1 [MMV 006901]	–	–	–	>60 ^4	–	–	–	99	4900 ± 8.5	3.7	1.8	100	15	7.1	–	–	–	–	–	–	IC50 [1]: 1200 ± 110 nM; IC50 (HEK293 cells): 18000 ± 810 nM; IC50 (HEPG2 cells): 9800 nM
O=C(Nc1ccc2c(c1)B(O)OC2)c1ccccc1C(F)(F)F [MMV 652003]	FA (Fast-acting (FA) = IC50 value can be determined following 24 h incubation, <10-fold difference in the IC50 value from 24 to 72 h)	100	150 ± 4	>487	3.4	510 ± 80	1280 ± 560	–	–	74	> 862	–	45	> 548	100	92 ± 2.7	100	110 ± 12	100	450 ± 67	Speed of Action (Table 5) (T. cruzi and T.b. brucei): Fast; Emax (T. cruzi [2]; [7]): 99%; Emax (T. cruzi [3]; Trypanosoma cruzi): 93%; IC50 (HEK293 cells; Homo sapiens): 6800 ± 204 nM
Cc1cc(C2=NOC(c3cc(Cl)c(F)c(Cl)c3)(C(F)(F)F)C2)ccc1C(=O)NCc1ccc2c(c1)C(C)(C)OB2O (centres unmarked) [MMV 687776]	SA (TC)	–	–	>46	1.0	–	–	99	4300 ± 1300	3.0	> 18	100	8.1	> 50	–	–	–	–	–	–	Emax % (T. cruzi) ([1]; listed as MMV687776): > 95%; IC50 [1]: 1600 ± 380 nM; SI (T. cruzi) 3T3 ([1]; listed as MMV687776): > 46; Emax Wash Off (T. cruzi [2]; [8]): 100%; IC50 (T. cruzi [2]; [8]): 1600 ± 64 nM; IC50 (HEK293 cells): 13000 ± 1600 nM; Emax 48 h T.b. brucei (T.b. brucei [5]): 99%; IC50 (T.b. brucei [5]): 4040 ± 1780 nM; Emax 24 h T.b. brucei (T.b. brucei [6]): 89%; IC50 (T.b. brucei [6]): 5350 ± 103 nM
CCCCN(CCCC)c1c(C#N)cc(S(=O)(=O)Nc2ccccc2)cc1C#N [MMV 688467]	SA (TC)	–	–	>32	0.91	–	–	99	310 ± 6.9	> 254	74	98	> 34	10	–	–	–	–	–	–	Emax % (T. cruzi) ([1]; listed as MMV688467): > 95%; IC50 [1]: 2300 ± 460 nM; Emax Wash Off (T. cruzi [2]; [8]): 100%; IC50 (T. cruzi [2]; [8]): 2100 ± 440 nM; Emax 24 h T. cruzi (T. cruzi [3]): 75%; IC50 (T. cruzi [3]): 4400 ± 730 nM; Emax 48 h T.b. brucei (T.b. brucei [5]): 100%; IC50 (T.b. brucei [5]): 460 ± 18 nM; Emax 24 h T.b. brucei (T.b. brucei [6]): 88%; IC50 (T.b. brucei [6]): 1200 ± 350 nM; IC50 (HEPG2 cells): 23000 nM
O=C(NCCc1ccn(-c2ccccc2)n1)C1CCCCC1 [MMV 688795]	FA (Fast-acting (FA) = IC50 value can be determined following 24 h incubation, <10-fold difference in the IC50 value from 24 to 72 h)	100	580 ± 50.3	>126	0.74	380 ± 56	1300 ± 120	–	–	>608 (>608)	>608 (>608)	–	>136 (>136)	>136 (>136)	99	130 ± 52	99	106 ± 20	99	290 ± 4.7	Speed of Action (Table 5) (T. cruzi and T.b. brucei): Fast; IC50 (T.b. gambiense STIB930): 630 ± 1.4 nM; Emax (T. cruzi [3]; Trypanosoma cruzi): 89%; IC50 (T.b. rhodesiense STIB900): 79 ± 0.7 nM
N=C(N)c1ccc(OCCCCCOc2ccc(C(=N)N)cc2)cc1 [Pentamidine, reference compound]	FA (Fast-acting (FA) = IC50 value can be determined following 24 h incubation, <10-fold difference in the IC50 value from 24 to 72 h)	–	–	–	–	–	–	–	–	>216	–	–	–	–	100	3.1 ± 0.1	100	0.2 ± 0.0021	99	12 ± 2.1	IC50 (T.b. gambiense STIB930): 3 ± 2 nM; IC50 HEK (HEK293 cells): NA at 0.67 µM (NT)
COc1ccc(C[C@H](N)C(=O)N[C@H]2[C@@H](O)[C@H](n3cnc4c(N(C)C)ncnc43)O[C@@H]2CO)cc1 [Puromycin, reference compound]	FA (Fast-acting (FA) = IC50 value can be determined following 24 h incubation, <10-fold difference in the IC50 value from 24 to 72 h)	100	5600 ± 11	1.2	0.50	2800 ± 130	3500 ± 440	–	–	12	4.0	–	0.13	0.044	100	63 ± 0.41	100	97 ± 0.42	100	96 ± 13	IC50 (HEK293 cells; Homo sapiens): 730 ± 270 nM; IC50 (HEPG2 cells; Homo sapiens): 250 nM
